According to patent publication EP4631959A2, “NOVEL MINIGASTRIN-DERIVED CHOLECYSTOKININ 2 RECEPTOR BINDING MOLECULES FOR IMAGING AND TARGETED RADIOTHERAPY” (priority 2022, dated 2024):
Starred links: 1 amine or outer side, 2 acyl side, 3 side chain; linkers in the order of their positions; H or OH if unused. Non-standard residues stand in square brackets, D forms with d. Residues, ends and D or L forms follow the SMILES beside them. *: point of attachment. X5 = O=C(O)CN1CCN(CC(=O)O)CCN([C@@H](CCC(=O)*)C(=O)O)CCN(CC(=O)O)CC1; X2 = O=C(O)CN1CCN(CC(=O)O)CCN([C@H](CCC(=O)*)C(=O)O)CCN(CC(=O)O)CC1; Benzoyl(4-SiFtBu2) = CC(C)(C)[Si](F)(c1ccc(C(=O)*)cc1)C(C)(C)C; DOTA = O=C(O)CN1CCN(CC(=O)O)CCN(CC(=O)*)CCN(CC(=O)O)CC1; NODAGA = O=C(O)CN1CCN(CC(=O)O)CCN(C(CCC(=O)*)C(=O)O)CC1; NOTA = O=C(O)CN1CCN(CC(=O)O)CCN(CC(=O)*)CC1; d(γGlu) = O=C(O)[C@@H](CCC(=O)[*:2])N[*:1]; 1Nal = N[C@@H](Cc1cccc2ccccc12)C(=O)O; NMeNle = CCCC[C@H](NC)C(=O)O; PEG4 = NCCOCCOCCOCCOCCC(=O)O; Nle = CCCC[C@H](N)C(=O)O; Dap = NC[C@H](N)C(=O)O

Each compound was assayed against T1, CCK-2R (Rattus norvegicus, UniProt P30553) (assay: Determination of IC50: CCK-2R affinity on AR4-2J cells, competition with [^177Lu]Lu-DOTA-PP-F11N). Conditions: not given.
T1 construct: The CCK-2R expressing rat pancreatic tumor cells AR4-2J; host or cells: AR4-2J rat pancreatic tumor cells
T1 sequence (P30553 1-452): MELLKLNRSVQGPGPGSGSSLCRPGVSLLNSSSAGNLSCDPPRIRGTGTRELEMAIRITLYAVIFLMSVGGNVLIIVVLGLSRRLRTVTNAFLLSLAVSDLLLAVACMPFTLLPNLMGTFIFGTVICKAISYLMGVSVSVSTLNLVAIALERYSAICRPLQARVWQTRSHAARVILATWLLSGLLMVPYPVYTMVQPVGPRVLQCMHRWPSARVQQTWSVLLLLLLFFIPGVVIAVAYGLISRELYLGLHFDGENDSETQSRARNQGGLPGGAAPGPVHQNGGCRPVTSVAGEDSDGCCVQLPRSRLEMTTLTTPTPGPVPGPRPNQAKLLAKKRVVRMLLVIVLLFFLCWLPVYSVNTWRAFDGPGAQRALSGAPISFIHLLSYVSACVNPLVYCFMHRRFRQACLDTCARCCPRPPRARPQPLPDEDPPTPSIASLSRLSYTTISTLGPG
Type: binding
Experimental: AR4-2J cells were harvested 24 ± 2 h before the experiment and seeded in 24-well plates (2.0 × 10^5 cells in 1 mL/well). After removal of the nutrient medium (RPMI 1640, 5 mM L-Gln, 5 mL non-essential amino acids (100×), 10% FCS), the cells were washed once with 500 µL PBS. Thereafter, 200 µL nutrient medium (5% BSA, v/v) were added. Next, 25 µL per well of solutions containing either nutrient medium (5% BSA, v/v) as control or the respective compound in increasing concentration (10^-10 - 10^-4 M), were added with subsequent addition of 25 µL [^177Lu]Lu-DOTA-PP-F11N (0.3 pmol/well).
All experiments were performed in triplicate for each concentration. After 3 h incubation at 37 °C, the experiment was terminated by removal of the medium and consecutive rinsing with 300 µL PBS. The media of both steps were combined in one fraction and represent the amount of free radiolabeled reference. Afterwards, the cells were lysed with 300 µL of 1 M NaOH for at least 15 min and united with the 300 µL NaOH of the following washing step. Quantification of bound and free radiolabeled reference was accomplished in a γ-counter. IC50 determination for each conjugate was repeated twice.

| SMILES | IC50 [nM] |
| --- | --- |
| CCCC[C@H](NC(=O)[C@H](Cc1c[nH]c2ccccc12)NC(=O)CNC(=O)[C@H](Cc1ccc(O)cc1)NC(=O)[C@H](C)NC(=O)[C@@H](CCC(=O)O)NC(=O)[C@@H](CCC(=O)O)NC(=O)[C@@H](CCC(=O)O)NC(=O)[C@@H](CCC(=O)O)NC(=O)[C@@H](CCC(=O)O)NC(=O)[C@@H](CCC(=O)O)NC(=O)CN1CCN(CC(=O)O)CCN(CC(=O)O)CCN(CC(=O)O)CC1)C(=O)N[C@@H](CC(=O)O)C(=O)N[C@@H](Cc1ccccc1)C(N)=O [DOTA-PP-F11N, DOTA-glu^1-glu^2-glu^3-glu^4-glu^5-glu^6-Ala^7-Tyr^8-Gly^9-Trp^10-Nle^11-Asp^12-Phe^13-NH2, reference compound] | 12.8 ± 2.8 |
| CCCC[C@H](NC(=O)[C@H](Cc1c[nH]c2ccccc12)NC(=O)CNC(=O)[C@H](Cc1ccc(O)cc1)NC(=O)[C@H](C)NC(=O)CC[C@@H](N)C(=O)O)C(=O)N[C@@H](CC(=O)O)C(=O)N[C@@H](CNC(=O)c1ccc([Si](F)(C(C)(C)C)C(C)(C)C)cc1)C(N)=O [CCK-48, H-γ-glu-Ala-Tyr-Gly-Trp-Nle-Asp-Dap(SiFA)-NH2] ({d(γGlu)}-AYGW[Nle]D[Dap](Benzoyl(4-SiFtBu2))-NH2) | > 10000 |

Same assay, conditions: AR4-2J cells; [^19F]AlF-complexated; read-out: IC50 [nM] (n = 3), ^natAlF-labeled

| IC50 [nM] | SMILES |
| --- | --- |
| 10.4 ± 0.9 | CCCC[C@@H](C(=O)N[C@@H](CC(=O)O)C(=O)N[C@@H](Cc1cccc2ccccc12)C(N)=O)N(C)C(=O)[C@H](Cc1c[nH]c2ccccc12)NC(=O)CCOCCOCCOCCOCCNC(=O)CC[C@@H](NC(=O)CN1CCN(CC(=O)O)CCN(CC(=O)O)CC1)C(=O)O [NOTA-CCK-66, NOTA-γ-glu-(PEG)3-Trp-(N-Me)Nle-Asp-1-Nal-NH2] ({NOTA-d(γGlu)-PEG4}-W[NMeNle]D[1Nal]-NH2) |

Same assay, conditions: AR4-2J cells; ^natGa-labeled; read-out: IC50 [nM] (n = 3), ^natGa-labeled

| IC50 [nM] | SMILES |
| --- | --- |
| 4.9 ± 0.7 | CCCC[C@@H](C(=O)N[C@@H](CC(=O)O)C(=O)N[C@@H](Cc1cccc2ccccc12)C(N)=O)N(C)C(=O)[C@H](Cc1c[nH]c2ccccc12)NC(=O)CCOCCOCCOCCOCCNC(=O)CC[C@@H](NC(=O)CCC(C(=O)O)N1CCN(CC(=O)O)CCN(CC(=O)O)CC1)C(=O)O (stereo partly drawn) [NODAGA-CCK-66, NODAGA-γ-glu-(PEG)3-Trp-(N-Me)Nle-Asp-1-Nal-NH2] ({NODAGA-d(γGlu)-PEG4}-W[NMeNle]D[1Nal]-NH2) |
| 9.7 ± 1 | CCCC[C@@H](C(=O)N[C@@H](CC(=O)O)C(=O)N[C@@H](Cc1cccc2ccccc12)C(N)=O)N(C)C(=O)[C@H](Cc1c[nH]c2ccccc12)NC(=O)CCOCCOCCOCCOCCNC(=O)CC[C@@H](NC(=O)CN1CCN(CC(=O)O)CCN(CC(=O)O)CC1)C(=O)O [NOTA-CCK-66, NOTA-γ-glu-(PEG)3-Trp-(N-Me)Nle-Asp-1-Nal-NH2] ({NOTA-d(γGlu)-PEG4}-W[NMeNle]D[1Nal]-NH2) |
| 17.9 ± 2.7 | CCCC[C@@H](C(=O)N[C@@H](CC(=O)O)C(=O)N[C@@H](Cc1cccc2ccccc12)C(N)=O)N(C)C(=O)[C@H](Cc1c[nH]c2ccccc12)NC(=O)CCOCCOCCOCCOCCNC(=O)CC[C@@H](NC(=O)CC[C@@H](C(=O)O)N1CCN(CC(=O)O)CCN(CC(=O)O)CCN(CC(=O)O)CC1)C(=O)O [(S)-DOTAGA-CCK-66, (S)-DOTAGA-γ-glu-(PEG)3-Trp-(N-Me)Nle-Asp-1-Nal-NH2] ({X5-d(γGlu)-PEG4}-W[NMeNle]D[1Nal]-NH2) |
| 16 ± 2.1 | CCCC[C@@H](C(=O)N[C@@H](CC(=O)O)C(=O)N[C@@H](Cc1cccc2ccccc12)C(N)=O)N(C)C(=O)[C@H](Cc1c[nH]c2ccccc12)NC(=O)CCOCCOCCOCCOCCNC(=O)CC[C@@H](NC(=O)CC[C@H](C(=O)O)N1CCN(CC(=O)O)CCN(CC(=O)O)CCN(CC(=O)O)CC1)C(=O)O [(R)-DOTAGA-CCK-66, (R)-DOTAGA-γ-glu-(PEG)3-Trp-(N-Me)Nle-Asp-1-Nal-NH2] ({X2-d(γGlu)-PEG4}-W[NMeNle]D[1Nal]-NH2) |

Same assay, conditions: AR4-2J cells; ^natLu-labeled; read-out: IC50 [nM] (n = 3), ^natLu-labeled

| IC50 [nM] | SMILES |
| --- | --- |
| 98.9 ± 8.4 | CCCC[C@@H](C(=O)N[C@@H](CC(=O)O)C(=O)N[C@@H](Cc1cccc2ccccc12)C(N)=O)N(C)C(=O)[C@H](Cc1c[nH]c2ccccc12)NC(=O)CNC(=O)CN1CCN(CC(=O)O)CCN(CC(=O)O)CCN(CC(=O)O)CC1 [DOTA-CCK-58, DOTA-Gly-Trp-(N-Me)Nle-Asp-1-Nal-NH2] ({DOTA}-GW[NMeNle]D[1Nal]-NH2) |
| 9.7 ± 1.7 | CCCC[C@@H](C(=O)N[C@@H](CC(=O)O)C(=O)N[C@@H](Cc1cccc2ccccc12)C(N)=O)N(C)C(=O)[C@H](Cc1c[nH]c2ccccc12)NC(=O)CNC(=O)CNC(=O)[C@H](C)NC(=O)CNC(=O)CN1CCN(CC(=O)O)CCN(CC(=O)O)CCN(CC(=O)O)CC1 [DOTA-CCK-61, DOTA-Gly-Ala-(Gly)2-Trp-(N-Me)Nle-Asp-1-Nal-NH2] ({DOTA}-GAGGW[NMeNle]D[1Nal]-NH2) |
| 8.5 ± 1.2 | CCCC[C@@H](C(=O)N[C@@H](CC(=O)O)C(=O)N[C@@H](Cc1cccc2ccccc12)C(N)=O)N(C)C(=O)[C@H](Cc1c[nH]c2ccccc12)NC(=O)CNC(=O)CNC(=O)CNC(=O)CNC(=O)CN1CCN(CC(=O)O)CCN(CC(=O)O)CCN(CC(=O)O)CC1 [DOTA-CCK-55, DOTA-(Gly)4-Trp-(N-Me)Nle-Asp-1-Nal-NH2] ({DOTA}-GGGGW[NMeNle]D[1Nal]-NH2) |
